# Test results taken from publication PMC8352984, “Estrogen mediates sex differences in preoptic neuropeptide and pituitary hormone production in medaka” (Communications Biology, 2021).
# Assays:
# [1] = test system: adcyap1-expressing neurons in the PMp; assay: Gonadectomy and sex steroid treatment, in situ hybridization of adcyap1 in PMp; type: in vivo, medaka (Oryzias latipes); settings: 100 ng ml^-1 in water, 6 days; for number of adcyap1-expressing neurons in PMp: castrated (CX) males
# Excerpt: (§1) Fig. 4 Sex-biased expression of adcyap1 and vip in the POA is established by ovarian estrogen. a Levels of adcyap1 and vip expression in the brain of sex-reversed XX males and XY females versus typical XY males and XX females (n = 8 per group). b Number of adcyap1- and vip-expressing neurons in the PMp of sex-reversed XX males and XY females (n = 5 per group). c Representative micrographs showing adcyap1 and vip expression in the PMp of sex-reversed XX males and XY females. Scale bars represent 50 μm. d Number of adcyap1- and vip-expressing neurons in the PMp of sham-operated (sham) males and castrated males exposed to vehicle alone (CX), 11-ketotestosterone (CX + KT), or estradiol-17β (CX + E2) (n = 5 per group, except CX + E2 for adcyap1 and CX + KT for vip, where n = 4). e Representative micrographs showing adcyap1 and vip expression in the PMp of sham, CX, CX + KT, and CX + E2 males. Scale bars represent 50 μm. f Number of adcyap1- and vip-expressing neurons in the PMp of sham females and ovariectomized females exposed to vehicle alone (OVX), KT (OVX + KT), or E2 (OVX + E2) (n = 5 per group). g Representative micrographs showing adcyap1 and vip expression in the PMp of sham, OVX, OVX + KT, and OVX + E2 females. Scale bars represent 50 μm. Quantitative data were expressed as means with error bars representing standard error of the mean. Statistical differences were assessed by Bonferroni’s post-hoc test (a, d, f) and unpaired t-test (b). *p < 0.05; **p < 0.01; ***p < 0.001.
# (§2) For both males and females, the gonad was removed under 0.02% tricaine methane sulfonate anesthesia (Sigma–Aldrich, St. Louis, MO, USA) through a small incision in the ventrolateral abdominal wall. Immediately after removal of the gonad, the incision was sutured with nylon thread. Sham-operated fish underwent the same surgical treatment as gonadectomized fish except for gonad removal. After a recovery period of 3 days in saline (0.9% (w v^−1) NaCl), gonadectomized fish were immersed in water containing 100 ng ml^−1 of KT (Cosmo Bio, Tokyo, Japan) or E2 (Fujifilm Wako Pure Chemical Corporation), or vehicle (ethanol) alone for 6 days and then sampled. Sham-operated fish were treated with vehicle alone and used as controls. The sex steroid concentration used was based on previously reported serum steroid levels in medaka.
# (§3) The procedure for single-label in situ hybridization has been described elsewhere. In brief, the brain and pituitary were fixed in 4% paraformaldehyde (PFA) and embedded in paraffin. Serial coronal sections of 10 μm thickness were cut and hybridized with each of the six DIG-labeled Adcyap1/Vip receptor probes described above and the DIG-labeled adcyap1 and vip probes used for northern blot analysis. Hybridization signals were visualized by using alkaline phosphatase-conjugated anti-DIG antibody and 5-bromo-4-chloro-3-indolyl phosphate/nitro blue tetrazolium (BCIP/NBT) substrate (Roche Diagnostics). Color development was allowed to proceed for more than 9 h or was stopped after 1.5 h to avoid saturation (for quantification of vip expression after gonadectomy and sex steroid replacement). All sections in each comparison were processed simultaneously under the same conditions.
# (§4) To obtain quantitative data, the number of neurons positive for a hybridization signal was counted manually in each brain nucleus. In some brain regions, these neurons were continuously distributed across two or more nuclei such that it was difficult to count the number of the neurons separately in each nucleus. In this case, the total number of the neurons in the nuclei was counted. For the pituitary and nuclei where these neurons were tightly clustered and their exact number could not be determined, sections were photographed and converted to black and white binary images by thresholding using Adobe Photoshop (ver. 22; Adobe Systems, San Jose, CA, USA). […]
# [2] = test system: vip-expressing neurons in the PMp; assay: Gonadectomy and sex steroid treatment, in situ hybridization of vip in PMp; type: in vivo, medaka (Oryzias latipes); settings: 100 ng ml^-1 in water, 6 days; for number of vip-expressing neurons in PMp: castrated (CX) males
# Excerpt: as §1, §2, §3, §4
# [3] = ovariectomized females, effect on the ovariectomy-induced increase
# [4] = ovariectomized females, effect on the ovariectomy-induced reduction
SMILES,number of adcyap1-expressing neurons in PMp ([1]; fish 1 (Fig. 4d)),number of adcyap1-expressing neurons in PMp ([1]; fish 3 (Fig. 4d)),number of adcyap1-expressing neurons in PMp ([1]; fish 4 (Fig. 4d)),number of adcyap1-expressing neurons in PMp ([1]; fish 5 (Fig. 4d)),number of adcyap1-expressing neurons in PMp (in words) ([1]; castrated males),"number of adcyap1-expressing neurons in PMp (in words) [1, 3]",number of vip-expressing neurons in PMp ([2]; fish 1 (Fig. 4d)),number of vip-expressing neurons in PMp ([2]; fish 2 (Fig. 4d)),number of vip-expressing neurons in PMp ([2]; fish 3 (Fig. 4d)),number of vip-expressing neurons in PMp ([2]; fish 4 (Fig. 4d)),number of vip-expressing neurons in PMp ([2]; fish 5 (Fig. 4d)),number of vip-expressing neurons in PMp (in words) ([2]; castrated males),"number of vip-expressing neurons in PMp (in words) [2, 4]",number of adcyap1-expressing neurons in PMp ([1]; fish 2 (Fig. 4d))
"C[C@]12CC[C@@H]3c4ccc(O)cc4CC[C@H]3[C@@H]1CC[C@@H]2O [E2, estradiol-17β]",56.0,85.0,112.0,79.5,significantly reduced adcyap1-expressing neurons,completely abolished,260.0,388.5,363.0,447.0,311.0,increased vip-expressing neurons,restored,
"C[C@]12CC(=O)[C@H]3[C@@H](CCC4=CC(=O)CC[C@@]43C)[C@@H]1CC[C@@H]2O [KT, 11-ketotestosterone]",198.0,273.5,161.5,147.0,did not affect either of these neurons,had no such effect,98.5,,118.0,84.5,192.5,did not affect either of these neurons,not KT treatment,271.0
